Data: patent US20080064682A1, “Pyrazole Derivatives” (DAIICHI PHARMACEUTICAL CO., LTD., priority 2004, published 2008)
Read-outs that look alike come from different tables or passages of the source.

Experiments:
[1] = tested on: collagen-induced platelet aggregation; details: background art, cited from earlier work
[2] = tested on: collagen-induced platelet aggregation; test: Platelet aggregation-inhibitory action (collagen-induced aggregation in platelet rich plasma); format: cell-based; details: human PRP, 37° C., read-out: Inhibition of collagen-induced platelet aggregation, IC50
Method: The blood was centrifuged at 180×g for 10 minutes to separate platelet rich plasma (PRP) from the blood. Upper layer PRP was removed, and the lower layer was centrifuged at 1600×g for 10 minutes, to thereby recover the upper layer platelet poor plasma (PPP). A solution (1 μL) of compound of the present invention was added to PRP (200 μL), and the mixture was allowed to stand at 37° C. for 2 minutes. Subsequently, collagen (2 μL) was added to the resultant mixture so as to induce platelet aggregation. Percent platelet aggregation was measured using PAM-12C (SSR Engineering). Optical transmittance of PPP was regarded as an indicator of 100% aggregation. Percent platelet aggregation values of the respective compounds were determined at different concentrations. IC50 values were calculated.

Cyclooxygenase-1 (COX-1) = target: T1, Cyclooxygenase-1 (COX-1) (Ovis aries, UniProt P05979); test: COX Inhibitor Screening Assay Kit, COX-1 (PGF2α by ELISA); format: biochemical; details: 50 μM compound; read-out: Inhibitory effect against COX-1 at 50 μM (% inhibition)
T1 construct: purchased Cayman Chemical Company 560101 and 560121
T1 sequence (P05979 25-600): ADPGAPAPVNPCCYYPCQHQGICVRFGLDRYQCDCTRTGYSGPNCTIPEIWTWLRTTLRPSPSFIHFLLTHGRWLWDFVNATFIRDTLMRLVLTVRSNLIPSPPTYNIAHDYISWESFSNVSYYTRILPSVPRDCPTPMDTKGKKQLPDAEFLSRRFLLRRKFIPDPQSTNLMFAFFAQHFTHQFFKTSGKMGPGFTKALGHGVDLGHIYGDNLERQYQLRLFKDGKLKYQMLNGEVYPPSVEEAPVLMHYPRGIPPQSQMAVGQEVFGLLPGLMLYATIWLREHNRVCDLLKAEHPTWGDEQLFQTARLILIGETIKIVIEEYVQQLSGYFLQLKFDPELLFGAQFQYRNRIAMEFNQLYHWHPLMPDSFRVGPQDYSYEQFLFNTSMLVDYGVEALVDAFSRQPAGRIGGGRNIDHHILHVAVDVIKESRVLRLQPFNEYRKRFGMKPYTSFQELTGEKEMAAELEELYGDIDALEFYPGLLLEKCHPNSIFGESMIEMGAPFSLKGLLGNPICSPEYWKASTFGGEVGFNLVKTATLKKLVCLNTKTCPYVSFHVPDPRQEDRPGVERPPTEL
Method: (§1) COX-1 inhibiting activity and COX-2 inhibiting activity of inventive compounds produced in some of the Examples herein were measured by use of a COX Inhibitor Screening Assay Kit (product of Cayman Chemical Company, Catalog Nos. 560101 and 560121).
(§2) Before starting the measurement, a reaction buffer, heme, arachidonic acid, SnCl2, EIA buffer, washing buffer, prostaglandin (PG) screening EIA standard, PG screening acetylcholine esterase (AchE), tracer ([…]), and PG screening EIA antiserum were prepared ready for use.
(§3) Production of PGF in the Presence of COX-1 or COX-2
A reaction mixture containing a compound of the present invention from the Examples (50 μM) and COX-1 or COX-2 was allowed to stand at 37° C. for 10 minutes. Arachidonic acid (10 μL) was added thereto, and the resultant mixture was further allowed to stand at 37° C. for 2 minutes. 1N-Hydrochloric acid (50 μL) was added to the reaction mixture, to thereby stop the reaction. SnCl2 solution (100 μL) was added thereto, and the resultant mixture was allowed to stand at room temperature for 5 minutes.
(§4) (2) Quantitative Determination of PGF2α Using ELISA
Antiserum (rabbit anti-PGF2α antibody, 50 μL) was added to the wells of a 96-well plate that had been coated with mouse anti-rabbit IgG. A solution of PGF2α-containing mixture obtained above (2000-fold dilution, 50 μL) and an AchE tracer (50 μL) were sequentially added to each well, and the mixture was allowed to stand at room temperature for 18 hours. The wells were washed 5 times with the washing buffer to remove an excessive AchE tracer, and an Ellman reagent (200 μL) was added. After keeping the plate in a dark room for 60 minutes, absorbance was measured at 405 nm.
(3) Calculation of Inhibitory Activity of the Compounds of the Present Invention
(§5) A calibration curve was obtained by use of a PG screening EIA standard, and the production amount of PGF2α was determined from the absorbance Percent inhibition against COX-1 or COX-2 in the presence of a 50 μM of the compound was calculated.

Cyclooxygenase-2 (COX-2) = target: T2, Cyclooxygenase-2 (COX-2) (Homo sapiens, UniProt P35354); test: COX Inhibitor Screening Assay Kit, COX-2 (PGF2α by ELISA); format: biochemical; details: 50 μM compound; read-out: Inhibitory effect against COX-2 at 50 μM (% inhibition)
T2 construct: purchased Cayman Chemical Company 560101 and 560121
T2 sequence (P35354 18-604): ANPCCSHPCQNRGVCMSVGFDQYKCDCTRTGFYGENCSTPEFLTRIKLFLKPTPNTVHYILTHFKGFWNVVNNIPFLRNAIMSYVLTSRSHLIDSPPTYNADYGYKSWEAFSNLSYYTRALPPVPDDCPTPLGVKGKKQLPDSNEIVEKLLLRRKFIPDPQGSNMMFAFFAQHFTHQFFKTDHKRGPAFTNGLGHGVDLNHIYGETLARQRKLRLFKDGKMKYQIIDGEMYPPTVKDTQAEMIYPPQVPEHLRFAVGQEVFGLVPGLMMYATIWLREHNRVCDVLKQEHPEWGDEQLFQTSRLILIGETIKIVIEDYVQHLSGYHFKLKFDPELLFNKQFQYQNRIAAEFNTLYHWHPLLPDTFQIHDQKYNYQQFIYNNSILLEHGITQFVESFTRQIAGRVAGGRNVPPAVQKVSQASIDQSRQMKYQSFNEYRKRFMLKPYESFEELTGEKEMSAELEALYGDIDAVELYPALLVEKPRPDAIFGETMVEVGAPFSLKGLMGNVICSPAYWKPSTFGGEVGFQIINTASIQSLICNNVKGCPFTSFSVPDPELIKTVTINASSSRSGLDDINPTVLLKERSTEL
Method: as §1, §2, §3
A reaction mixture containing a compound of the present invention from the Examples (50 μM) and COX-1 or COX-2 was allowed to stand at 37° C. for 10 minutes. Arachidonic acid (10 μL) was added thereto, and the resultant mixture was further allowed to stand at 37° C. for 2 minutes. […]
as §4
Antiserum (rabbit anti-PGF2α antibody, 50 μL) was added to the wells of a 96-well plate that had been coated with mouse anti-rabbit IgG. […] After keeping the plate in a dark room for 60 minutes, absorbance was measured at 405 nm. […]
as §5

## CS(=O)(=O)c1ccc(-c2cc(C#N)nn2-c2ccc(F)cc2)cc1 [Compound (A)]
[1]; read-out: IC50 value against collagen-induced platelet aggregation
  IC50: 5.3 µM

## NC(=O)c1ccc(-c2cc(C(=O)N3CCC(F)(F)CC3)nn2-c2cccnc2)nc1 [Example 13, 1-[5-(5-Carbamoyl-2-pyridyl)-1-(3-pyridyl)-1H-pyrazole-3-carbonyl]-4,4-difluoropiperidine]
[2]
  IC50: 130 nM
Cyclooxygenase-1 (COX-1)
  inhibition at 50 µM: 10.3%

## Cc1ccc(-c2cc(C(=O)N3CCC(F)(F)CC3)nn2-c2cccnc2)nc1 [Example 15, 1-[5-(5-Methyl-2-pyridyl)-1-(3-pyridyl)-1H-pyrazole-3-carbonyl]-4,4-difluoropiperidine]
[2]
  IC50: 9 nM
Cyclooxygenase-1 (COX-1)
  inhibition at 50 µM: 8.1%

## O=C(c1cc(-c2ccc(Cl)cn2)n(-c2cccnc2)n1)N1CCC(F)CC1 [Example 29, 1-[5-(5-Chloro-2-pyridyl)-1-(3-pyridyl)-1H-pyrazole-3-carbonyl]-4-fluoropiperidine]
[2]
  IC50: 95 nM
Cyclooxygenase-1 (COX-1)
  inhibition at 50 µM: -1.4%
Cyclooxygenase-2 (COX-2)
  inhibition at 50 µM: 5.3%

## COC1CCN(C(=O)c2cc(-c3ccc(C)cn3)n(-c3cccnc3)n2)CC1 [Example 30, 1-[5-(5-Methyl-2-pyridyl)-1-(3-pyridyl)-1H-pyrazole-3-carbonyl]-4-methoxypiperidine]
[2]
  IC50: 120 nM
Cyclooxygenase-1 (COX-1)
  inhibition at 50 µM: -21.1%

## Cc1ccc(-c2cc(C(=O)N3CCC(F)CC3)nn2-c2cccnc2)nc1 [Example 33]
[2]
  IC50: 31.3 nM
Cyclooxygenase-1 (COX-1)
  inhibition at 50 µM: -16.7%

## Cc1ccc(-c2cc(C(=O)N3CCCCN3)nn2-c2cccnc2)nc1 [Example 57, 1-[5-(5-Methylpyridin-2-yl)-1-(pyridin-3-yl)-1H-pyrazole-3-carbonyl]hexahydropyridazine]
[2]
  IC50: 140 nM
Cyclooxygenase-1 (COX-1)
  inhibition at 50 µM: -17.4%

## O=C(c1cc(-c2ccc(CO)cn2)n(-c2cccnc2)n1)N1CCC(F)(F)CC1 [Example 65, 1-[5-(5-Hydroxymethylpyridin-2-yl)-1-(pyridin-3-yl)-1H-pyrazole-3-carbonyl]-4,4-difluoropiperidine]
[2]
  IC50: 130 nM
Cyclooxygenase-1 (COX-1)
  inhibition at 50 µM: 5.9%

## Cc1ccc(-c2cc(C(=O)N3CCN(C)CC3)nn2-c2cccnc2)nc1 [Example 67, 1-[5-(5-Methylpyridin-2-yl)-1-(pyridin-3-yl)-1H-pyrazole-3-carbonyl]-4-methylpiperazine]
[2]
  IC50: 190 nM
Cyclooxygenase-1 (COX-1)
  inhibition at 50 µM: -21%

## Cn1cnc(-c2cc(C(=O)N3CCC(F)(F)CC3)nn2-c2cccnc2)c1 [Example 70, 1-[5-(1-Methyl-1H-imidazol-4-yl)-1-(pyridin-3-yl)-1H-pyrazole-3-carbonyl]-4,4-difluoropiperidine]
[2]
  IC50: 280 nM
Cyclooxygenase-1 (COX-1)
  inhibition at 50 µM: 5.5%

## Cc1ccc(-c2cc(C(=O)N3CCN(C)C(=O)C3)nn2-c2cccnc2)nc1 [Example 71, 1-[5-(5-Methylpyridin-2-yl)-1-(pyridin-3-yl)-1H-pyrazole-3-carbonyl]-4-methyl-3-oxopiperazine]
[2]
  IC50: 270 nM
Cyclooxygenase-1 (COX-1)
  inhibition at 50 µM: 18.1%

## C=C1CCN(C(=O)c2cc(-c3cn(C)cn3)n(-c3cccnc3)n2)CC1 [Example 73, 1-[5-(1-Methyl-1H-imidazol-4-yl)-1-(pyridin-3-yl)-1H-pyrazole-3-carbonyl]-4-methylenepiperidine]
[2]
  IC50: 78 nM
Cyclooxygenase-1 (COX-1)
  inhibition at 50 µM: 11.9%

## COc1ccc(-c2cc(C(F)F)nn2-c2ccc(S(N)(=O)=O)cc2)cc1F [compound (B)]
[1]
  platelet aggregation inhibitory activity compared with inhibitory activity against COX-2: not so potent
